Legend:
[1] = test system: SKBR-3 cells with FcγRIIIa reporter cells; assay: ADCC Reporter Bioassay (Promega); assay type: cell-based, human; conditions: SKBR-3, V158 effector cells
Procedure: In a different ADCC setup, the ADCC Reporter Bioassay (Promega) was used. The bioassay uses engineered Jurkat cells stably expressing the FcYRIIIa receptor, V158 (high affinity) or F158 (low affinity) variant, and an NFAT response element driving expression of firefly luciferase. The assay was validated by comparing data obtained with the ADCC Reporter Bioassay to the classical ^51Cr release assay. The ADCC assays were performed using the Promega ADCC Bioassay kit using 384 white well plates. In this experimental setup SKBR-3 cells were plated at a density of 1000 cells/well in 30 µl assay medium (RPMI with 4% low IgG serum) 20-24 H before the bioassay. The next day, the culture medium was removed. […] 10 µl antibody dilutions were added to the wells. The starting concentration of the antibody was 10 µg/ml and a 10 points semi-log fold serial dilution was generated to provide a full dose-response curve. Finally, 5 µl of ADCC Bioassay effector cells (15000 cells/well, V158) were added. The cells were incubated for 6 H at 37° C. Next, 15 µl BIO-Glo luciferase substrate was added and 5 minutes later luminescence was detected in a plate reader.
ADCC activity was measured by measuring luciferase activity. […] (FIG. 15)

[2] = test system: HRG mediated phosphorylation in N87 and SKBR-3 cells; assay: PathScan RTK / intracellular signaling antibody arrays; assay type: cell-based, human; conditions: 5 nM antibody, 100 ng/ml HRG
Procedure: Cells of an exponentially grown culture were harvested and seeded in 6 well plates (3.75 ×10^6 cells for N87 and 1.5×10^6 cells for SKBR-3) in starvation medium (N87 cells: RPMI-1640, 0.05% BSA, 10 µg/ml Holo-transferrin; SKBR-3 cells: DMEM/F-12, 2 mM L-glutamine, 0.05% BSA, 10 µg/ml Holo-transferrin) and incubated incubated overnight at 37° C., 5% CO2, in 95% relative humidity. The next day, antibodies were added to a final concentration of 5 nM and cells were incubated for one hour at 37° C., 5% CO2, in 95% relative humidity. HRG was then added to a final concentration of 100 ng/ml. After 1, 3, 6 or 24 hours at 37° C., 5% CO2, in 95% relative humidity, plates were placed on ice, cells were washed twice with cold PBS. Subsequently 0.3 ml ice-cold lysis buffer was added (Cell signaling RTK # 9803 or IC # 7018) and cells were lysed for a minimum of 30 minutes on ice. Next, protein concentrations were measured using BCA (Pierce #23235). Protein concentrations were adjusted to 2 mg/ml with lysis buffer. Next, lysates were applied to PathScan RTK Signaling Antibody Arrays (Cell signaling #7949) or PathScan Intracellular Signaling Antibody Arrays. All incubations were performed with sealed wells on an orbital shaker at room temperature. Lysates (75 µl) were diluted 2 times to […] concentration with 75 µl Array Diluent Buffer supplemented with protease inhibitor cocktail and kept on ice. Array wells were blocked with 100 µl Array block buffer for 15 minutes. Block buffer was removed and Lysates were applied to the wells and allowed to incubate for 2 hours. Lysate was aspirated and wells were washed 4 times with 100 µl Wash buffer. Next, 100 µl detection antibody cocktail was added per well and incubated for 1 hour. Antibody cocktail was aspirated and wells were washed 4 times with 100 µl Wash buffer. 75 µl DYLIGHT80™ Streptavidin was added to each well. DYLIGHT80™ Streptavidin was aspirated and wells were washed 4 times with 100 µl Wash buffer. […] Spot fluorescence intensity was calculated using Image Studio software.

[3] = test system: human stem cell derived cardiomyocytes; assay: Cardiomyocyte viability under doxorubicin stress; assay type: cell-based; conditions: 3 µM doxorubicin, 10 ng/ml HRG; monospecific antibodies 68 nM
Procedure: Human stem cell derived cardiomyocytes (Pluriomics BV) were seeded at a concentration of 20.000 well in white flat-bottom assay plates (corning 655098). On day 5 of culture the medium was replaced for glucose and galactose free culture medium supplemented with 10 ng/ml HRG. On day 7 test antibodies were added in combination with doxorubicin (3 µM). Cell viability was assayed on day 9 using the Promega Cell titer Glo assay.

[4] = test system: HRG mediated phosphorylation in N87 and SKBR-3 cells; assay: Western blot of HRG stimulated cells; assay type: cell-based, human; conditions: 5 nM antibody, 100 ng/ml HRG, 1-24 hours
Procedure: Cells of an exponentially grown culture were harvested and seeded in 10 cm dishes (20×10^6 cells for N87 and 7×10^6 cells for SKBR-3) in starvation medium (N87 cells: RPMI-1640, 0.05% BSA, 10 µg/ml Holo-transferrin; SKBR-3 cells: DMEM/F-12, 2 mM L-glutamine, 0.05% BSA, 10 µg/ml Holo-transferrin). The next day, antibodies were added to a final concentration of 5 nM and cells were incubated for one hour. HRG was then added to a final concentration of 100 ng/ml. After 1, 3, 6 or 24 hours, dishes were placed on ice, cells were washed twice with cold PBS, transferred to Eppendorf tubes and lysed with 250 µl of RIPA lysis buffer (20 mM Tris-HCl pH 7.5, 150 mM NaCl, 1 mM Na2EDTA, 1 mM EGTA, 1% NP-40, 1% sodium deoxycholate, 0.1% SDS, 2.5 mM sodium pyrophosphate, 1 mM beta-glycerophosphate, 1 mM Na3VO4, 1 µg/ml leupeptin). Lysis was allowed to proceed for 30 minutes on ice. Cell lysates were centrifuged and supernatants were collected in new Eppendorf tubes. Protein concentration was determined using the BCA method (Pierce). […] Membranes were blocked for one hour with TBS-T containing 5 % BSA and stained with the indicated antibodies according to the manufacturer’s instructions (Cell Signaling Technology). Membranes were then incubated with a HRP-conjugated secondary antibody, incubated with ECL substrate and subjected to autoradiography using X-ray films (Amersham). […]

Q: What does the source list for “PB4188: bispecific HER2xHER3 IgG: HER2 arm MF3958, HER3 arm MF3178”?
A: ADCC potency compared to parental monoclonals or their combination [1]: higher ADCC potentency; ERK and S6 phosphorylation [2]: strong inhibition; HER2 phosphorylation [2]: does not inhibit phosphorylation of HER2; AKT phosphorylation ([2]; first 6H): completely blocks AKT phosphorylation; Cardiomyocyte viability (ATP) [3]: unaffected; HER3 phosphorylation [4]: prolonged inhibition of HER3 phosphorylation
